Measured values: US5719278A, “Tricyclic benzazepine vasopressin antagonists” (American Cyanamid Company, priority 1996, dated 1998)

Tests used:
[1] = target: T1, Rat Kidney Medullary V2 Receptors (Rattus norvegicus, UniProt Q00788); assay: Binding Assay to Rat Kidney Medullary V2 Receptors; conditions: Rat Kidney Medullary V2 Receptors (no asterisk)
T1 construct: Medullary tissues from rat kidneys are dissected out; from tissue; host or cells: rat kidney medulla membranes
Protocol: Binding Assay to Rat Kidney Medullary V2 Receptors
Medullary tissues from rat kidneys are dissected out, cut into small pieces and let soak in a […] sodium chloride solution containing 1.0 mM EDTA with many changes of the liquid phase, until the solution is clear of blood. The tissue is homogenized in a 0.25M sucrose solution containing 1.0 mM EDTA and 0.1 mM PMSF using a Potter-Elvehjem homogenizer with a teflon pestle. The homogenate is filtered through several layers (4 layers) of cheese cloth. The filtrate is rehomogenized using a dounce homogenizer, with a tight fitting pestle. The final homogenate is contrifuged at 1500×g for 15 min. The nuclear pellet is discarded and the supernatant fluid recentrifuged at 40,000×g for 30 min. The resulting pellet formed contains a dark inner part with the exterior, slightly pink. The pink outer part is suspended in a small amount of 50.0 mM Tris.HCl buffer, pH 7.4. The protein content is determined by the Lowry's method (Lowry et al, J. Biol. Chem., 1953). The membrane suspension is stored at -70° C., in 50.0 mM Tris.HCl, containing 0.2% inactivated BSA and 0.1 mM PMSF in aliquots of 1.0 ml containing 10.0 mg protein per ml of suspension until use in subsequent binding experiments.
For binding experiments, the following is added in μl volume to wells of a 96 well format of a microtiter plate: 100.0 μl of 100.0 mM Tris.HCl buffer containing 0.2% heat inactivated BSA, 10.0 mM MgCl2 and a mixture of protease inhibitors: leupeptin, 1.0 mg %; aprotinin, 1.0 mg %; 1,10-phenanthroline, 2.0 mg %; trypsin inhibitor, 10.0 mg % and 0.1 mM PMSF, 20.0 μl of [^3 H]Arginine^8, vasopressin (S.A. 75.0 Ci/mmole) at 0.8 nM and the reaction initiated by the addition of 80.0 μl of tissue membranes (200.0 μg tissue protein). The plates are left undisturbed on the bench top for 120 min. to reach equilibrium. Non-specific binding is assessed in the presence of 1.0 μM of unlabeled ligand, added in 20 μl volume. For test compounds, these are solubilized in 50% dimethylsulfoxide (DMSO) and added in 20.0 μl volume to a final incubation volume of 200 μl. Upon completion of binding, the content of each well is filtered off, using a Brandel® cell Harvester (Gaithersburg, Md.). The radioactivity trapped on the filter disk by the ligand-receptor complex is assessed by liquid scintillation counting in a Packard LS Counter, with an efficiency of 65% for tritium. The data are analyzed for IC50 values by the LUNDON-2 program for competition (LUNDON SOFTWARE, Ohio).

[2] = target: T2, V1 Receptor Subtype in Human Platelet (Homo sapiens, UniProt P37288); assay: Binding to Vasopressin V1 Receptor Subtype in Human Platelet Membranes; conditions: *Binding to V1 Receptor Subtype in Human Platelet
T2 construct: from tissue; host or cells: human platelets (platelet rich plasma from Hudson Valley Blood Services)
T2 sequence (P37288 whole entry): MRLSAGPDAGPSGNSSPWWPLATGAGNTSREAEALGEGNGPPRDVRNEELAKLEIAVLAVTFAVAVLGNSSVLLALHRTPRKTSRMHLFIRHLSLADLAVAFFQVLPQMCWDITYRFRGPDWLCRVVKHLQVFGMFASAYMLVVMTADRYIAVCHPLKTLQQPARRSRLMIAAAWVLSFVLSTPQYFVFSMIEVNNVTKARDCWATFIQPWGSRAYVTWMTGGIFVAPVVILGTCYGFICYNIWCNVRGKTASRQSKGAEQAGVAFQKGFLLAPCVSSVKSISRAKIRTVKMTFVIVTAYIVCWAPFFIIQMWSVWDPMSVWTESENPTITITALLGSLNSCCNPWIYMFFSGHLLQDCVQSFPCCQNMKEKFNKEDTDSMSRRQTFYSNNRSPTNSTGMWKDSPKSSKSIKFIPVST
Protocol: Radioligand Binding Experiments with Human Platelet Membranes
Platelet Source: Hudson Valley Blood Services, Westchester Medical Center, Valhalla, N.Y.
Frozen platelet rich plasma (PRP), received from the Hudson Valley Blood Services are thawed to room temperature. The tubes containing the PRP are centrifuged at 16,000×g for 10 min. at 4° C. and the supernatant fluid discarded. The platelets resuspended in an equal volume of 50.0 mM Tris.HCl, pH 7.5 containing 120 mM NaCl and 20.0 mM EDTA. The suspension is recentrifuged at 16,000×g for 10 min. This washing step is repeated one more time. The wash is discarded and the lysed pellets homogenized in low ionic strength buffer of Tris.HCl, 5.0 mM, pH 7.5 containing 5.0 mM EDTA. The homogenate is centrifuged at 39,000×g for 10 min. The resulting pellet is resuspended in Tris.HCl buffer, 70.0 mM, pH 7.5 and recentrifuged at 39,000×g for 10 min. The final pellet is resuspended in 50.0 mM Tris.HCl buffer pH 7.4 containing 120 mM NaCl and 5.0 mM HCl to give 1.0-2.0 mg protein per ml of suspension.
Binding to Vasopressin V1 Receptor Subtype in Human Platelet Membranes:
In wells of a 96 well format microtiter plate, add 100 μl of 50.0 mM Tris.HCl buffer containing 0.2% BSA and a mixture of protease inhibitors (aprotinin, leupeptin etc.). Then add 20 μl of [^3 H]Ligand: (Manning or Arg^8 Vasopressin), to give final concentrations ranging from 0.01 to 10.0 nM. Initiate the binding by adding 80.0 μl of platelet suspension (approx. 100 μg protein). Mix all reagents by pipetting the mixture up and down a few times. Non-specific binding is measured in the presence of 1.0 μM of unlabeled ligand (Manning or Arg^8 Vasopressin). Let the mixture stand undisturbed at room temperature for ninety (90) min. Upon this time, rapidly filter off the incubate under vacuum suction over GF/B filters, using a Brandel® Harvester. Determine the radioactivity caught on the filter disks by the addition of liquid scintillant and counting in a liquid scintillator

T1 sequence (Q00788 whole entry): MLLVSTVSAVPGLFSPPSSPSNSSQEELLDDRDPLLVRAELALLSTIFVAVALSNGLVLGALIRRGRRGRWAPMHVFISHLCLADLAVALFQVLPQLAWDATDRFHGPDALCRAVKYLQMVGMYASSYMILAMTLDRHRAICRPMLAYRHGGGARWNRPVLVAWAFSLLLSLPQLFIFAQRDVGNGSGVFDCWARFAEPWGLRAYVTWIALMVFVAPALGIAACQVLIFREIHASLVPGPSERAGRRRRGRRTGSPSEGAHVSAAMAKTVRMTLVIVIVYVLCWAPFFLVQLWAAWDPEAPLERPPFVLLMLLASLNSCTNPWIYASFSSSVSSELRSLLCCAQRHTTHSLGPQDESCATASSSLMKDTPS

O=C(Nc1ccc(C(=O)N2CCc3cn[nH]c3-c3sccc32)cc1)c1ccc(F)cc1Cl [Example 1, N-[4-[(4,5-Dihydropyrazolo[3,4-d]thieno[3,2-b]azepin-6(1H)-yl)carbonyl]phenyl]-2-chloro-4-fluorobenzamide]
IC50 [1]: 0.34 µM

O=C(Nc1ccc(C(=O)N2CCc3cn[nH]c3-c3ncccc32)cc1)c1ccccc1-c1ccccc1 [Example 365, N-[4-[(4,5-Dihydropyrazolo[3,4-d]pyrido[3,2-b]azepin-6(1H)-yl)carbonyl]phenyl][1,1'-biphenyl]-2-carboxamide]
IC50 [1]: 0.0016 µM | IC50 [2]: 0.101 µM

Cc1ccc(F)cc1C(=O)Nc1ccc(C(=O)N2CCc3c[nH]nc3-c3ncccc32)cc1 [Example 367, N-[4-[4(4,5-Dihydropyrazolo[3,4-d]pyrido[3,2-b]azepin-6(1H)-yl)carbonyl]phenyl]-5-fluoro-2-methylbenzamide]
IC50 [1]: 0.03 µM | IC50 [2]: 0.31 µM
